Experimental data published in patent US8114885B2, “Chemical compounds” (GlaxoSmithKline LLC, priority 2000, dated 2012).

test system: HUVEC; assay: Human Umbilical Vein Endothelial Cell (HUVEC) proliferation assay (BrdU incorporation); format: cell-based; settings: VEGF-stimulated HUVEC, 72 hrs, read-out: Inhibition of HUVEC proliferation IC50
Procedure: Human Umbilical Vein Endothelial Cell (HUVEC) Proliferation Assay (BrdU Incorporation) Materials
HUVEC cells and EGM-MV (Endothelial cell growth medium—microvascular) were purchased from Clonetics (San Diego, Calif.). VEGF and bFGF were purchased from R&D Systems (Minneapolis, Minn.). Anti-BrdU antibody was obtained from Chemicon International (Temecula, Calif.).
HUVECs were routinely maintained in EGM-MV medium and were used within passage 7. HUVECs were plated at a density of 2500 cells/well in M199 medium containing 5% FBS (Hyclone) in type I collagen coated plate (Becton Dickinson). The plate was incubated at 37° C. overnight. The medium was removed by aspiration, and test compounds were added to each well in a volume of 0.1 ml/well in serum-free M199 medium. Compound concentrations ranged from 1.5 nM to 30 micromolar. The plate was incubated for 30 min at 37° C. Another 0.1 ml of serum-free M199 medium containing BSA and VEGF (or bFGF) was added to give a final concentration of 0.1% BSA and 10 ng/ml VEGF (0.3 ng/ml bFGF). The plate was incubated at 37° C. for 72 hrs. BrdU was added to each well after the first 48 hrs to give a concentration of 10 micromolar. The calorimetric ELISA assay was performed according to manufacturer's (Roche Molecular Sciences) instructions, with detection by absorbance reading at 450 nm. Results were plotted as concentration of test compound vs. absorbance to give an IC50 value for inhibition of BrdU incorporation.

Row | SMILES | IC50
1 | CCN(c1ccc2c(C)n[nH]c2c1)c1ccnc(Nc2cccc(NC(C)=O)c2)n1 [Example 32, N-[3-({4-[ethyl(3-methyl-1H-indazol-6-yl)amino]-2-pyrimidinyl}amino)phenyl]acetamide] | 0.001 to 0.2 µM
2 | COc1ccc(S(=O)(=O)Cc2cc(C)on2)cc1Nc1nccc(Nc2ccc3c(C)n[nH]c3c2)n1 [Example 33, N^2-(2-methoxy-5-{[(5-methyl-3-isoxazolyl)methyl]sulfonyl}phenyl)-N^4-(3-methyl-1H-indazol-6-yl)-2,4-pyrimidinediamine] | > 1 µM
3 | COc1ccc(S(N)(=O)=O)cc1Nc1nccc(Nc2ccc3c(C)n[nH]c3c2)n1 [Example 34, 4-methoxy-3-({4-[(3-methyl-1H-indazol-6-yl)amino]-2-pyrimidinyl}amino)benzenesulfonamide] | 0.201 to 0.5 µM
4 | COc1ccc(S(=O)(=O)C(C)C)cc1Nc1nccc(N(C)c2ccc3c(C)n[nH]c3c2)n1 [Example 35, N^2-[5-(isopropylsulfonyl)-2-methoxyphenyl]-N^4-methyl-N^4-(3-methyl-1H-indazol-6-yl)-2,4-pyrimidinediamine] | 0.001 to 0.2 µM
5 | CCS(=O)(=O)c1ccc(OC)c(Nc2nccc(N(c3ccc4c(C)n[nH]c4c3)C(C)C)n2)c1 [Example 36, N^2-[5-(ethylsulfonyl)-2-methoxyphenyl]-N^4-isopropyl-N^4-(3-methyl-1H-indazol-6-yl)-2,4-pyrimidinediamine] | > 1 µM
6 | CN(c1ccc2cn[nH]c2c1)c1ccnc(Nc2cccc(CS(C)(=O)=O)c2)n1 [Example 37, N^4-(1H-indazol-6-yl)-N^4-methyl-N^2-{3-[(methylsulfonyl)methyl]phenyl}-2,4-pyrimidinediamine] | 0.201 to 0.5 µM
7 | Cc1nn(C)c2cc(N(C)c3ccnc(Nc4cccc(CS(C)(=O)=O)c4)n3)ccc12 [Example 38, N^4-(1,3-dimethyl-1H-indazol-6-yl)-N^4-methyl-N^2-{3-[(methylsulfonyl)methyl]phenyl}-2,4-pyrimidinediamine] | 0.201 to 0.5 µM
8 | Cc1c2ccc(N(C)c3ccnc(Nc4cccc(CS(C)(=O)=O)c4)n3)cc2nn1C [Example 39, N^4-(2,3-dimethyl-2H-indazol-6-yl)-N^4-methyl-N^2-{3-[(methylsulfonyl)methyl]phenyl}-2,4-pyrimidinediamine] | 0.001 to 0.2 µM
9 | CCS(=O)(=O)c1ccc(OC)c(Nc2nccc(N(C)c3ccc4c(C)n(C)nc4c3)n2)c1 [Example 40, N^4-(2,3-dimethyl-2H-indazol-6-yl)-N^2-[5-(ethylsulfonyl)-2-methoxyphenyl]-N^4-methyl-2,4-pyrimidinediamine] | 0.001 to 0.2 µM
10 | CCC(=O)c1ccc(OC)c(Nc2nccc(Nc3ccc4c(C)n[nH]c4c3)n2)c1 [Example 41, 1-[4-methoxy-3-({4-[(3-methyl-1H-indazol-6-yl)amino]-2-pyrimidinyl}amino)phenyl]-1-propanone] | 0.501 to 1 µM
11 | COc1ccc(S(=O)(=O)Nc2cccc(Nc3nccc(N(C)c4ccc5c(C)n[nH]c5c4)n3)c2)cc1 [Example 42, 4-methoxy-N-[3-({4-[methyl(3-methyl-1H-indazol-6-yl)amino]-2-pyrimidinyl}amino)phenyl]benzenesulfonamide] | 0.201 to 0.5 µM
12 | CNS(=O)(=O)c1ccc(OC)c(Nc2nccc(Nc3ccc4c(C)n[nH]c4c3)n2)c1 [Example 43, 4-methoxy-N-methyl-3-({4-[(3-methyl-1H-indazol-6-yl)amino]-2-pyrimidinyl}amino)benzenesulfonamide] | 0.201 to 0.5 µM
13 | Cc1n[nH]c2cc(N(CC#N)c3ccnc(Nc4ccc(CS(C)(=O)=O)cc4)n3)ccc12 [Example 44, [(3-methyl-1H-indazol-6-yl)(2-{4-[(methylsulfonyl)methyl]anilino}-4-pyrimidinyl)amino]acetonitrile] | 0.201 to 0.5 µM
14 | CCS(=O)(=O)c1ccc(OC)c(Nc2nccc(N(CC#N)c3ccc4c(C)n[nH]c4c3)n2)c1 [Example 45, [{2-[5-(ethylsulfonyl)-2-methoxyanilino]-4-pyrimidinyl}(3-methyl-1H-indazol-6-yl)amino]acetonitrile] | 0.501 to 1 µM
15 | Cc1n[nH]c2cc(N(CC#N)c3ccnc(Nc4cccc(CS(C)(=O)=O)c4)n3)ccc12 [Example 46, [(3-methyl-1H-indazol-6-yl)(2-{3-[(methylsulfonyl)methyl]anilino}-4-pyrimidinyl)amino]acetonitrile] | 0.001 to 0.2 µM
16 | CNS(=O)(=O)c1ccc(OC)c(Nc2nccc(N(C)c3ccc4c(C)n[nH]c4c3)n2)c1 [Example 47, 4-methoxy-N-methyl-3-({4-[methyl(3-methyl-1H-indazol-6-yl)amino]-2-pyrimidinyl}amino)benzenesulfonamide] | 0.201 to 0.5 µM
17 | Cc1n[nH]c2cc(N(C)c3ccnc(Nc4ccc(C(N)=O)cc4)n3)ccc12 [Example 48, 4-({4-[methyl(3-methyl-1H-indazol-6-yl)amino]-2-pyrimidinyl}amino)benzamide] | 0.001 to 0.2 µM
18 | COc1cc(S(N)(=O)=O)ccc1Nc1nccc(N(C)c2ccc3c(C)n[nH]c3c2)n1 [Example 49, 3-methoxy-4-({4-[methyl(3-methyl-1H-indazol-6-yl)amino]-2-pyrimidinyl}amino)benzenesulfonamide] | 0.001 to 0.2 µM
19 | C#CCN(c1ccc2c(C)n[nH]c2c1)c1ccnc(Nc2cccc(CS(C)(=O)=O)c2)n1 [Example 50] | 0.201 to 0.5 µM
20 | C#CCN(c1ccc2c(C)n[nH]c2c1)c1ccnc(Nc2cccc(S(N)(=O)=O)c2)n1 [Example 51, 3-({4-[(3-methyl-1H-indazol-6-yl)(2-propynyl)amino]-2-pyrimidinyl}amino)benzenesulfonamide] | 0.201 to 0.5 µM
21 | Cc1n[nH]c2cc(N(C)c3ccnc(Nc4ccc(S(N)(=O)=O)cc4)n3)ccc12 [Example 52, 4-({4-[methyl(3-methyl-1H-indazol-6-yl)amino]-2-pyrimidinyl}amino)benzenesulfonamide] | 0.001 to 0.2 µM
22 | Cc1n[nH]c2cc(N(C)c3ccnc(Nc4cccc(S(C)(=O)=O)c4)n3)ccc12 [Example 53, N^4-methyl-N^4-(3-methyl-1H-indazol-6-yl)-N^2-[3-(methylsulfonyl)phenyl]-2,4-pyrimidinediamine] | 0.001 to 0.2 µM
23 | COc1ccc(S(N)(=O)=O)cc1Nc1nccc(N(C)c2ccc3c(C)n[nH]c3c2)n1 [Example 54, 4-methoxy-3-({4-[methyl(3-methyl-1H-indazol-6-yl)amino]-2-pyrimidinyl}amino)benzenesulfonamide] | 0.001 to 0.2 µM
24 | CCS(=O)(=O)c1ccc(OC)c(Nc2nccc(Nc3ccc4c(C)n[nH]c4c3)n2)c1 [Example 55, N^2-[5-(ethylsulfonyl)-2-methoxyphenyl]-N^4-(3-methyl-1H-indazol-6-yl)-2,4-pyrimidinediamine] | 0.001 to 0.2 µM
25 | Cc1n[nH]c2cc(N(C)c3ccnc(Nc4cccc(C(N)=O)c4)n3)ccc12 [Example 56, 3-({4-[methyl(3-methyl-1H-indazol-6-yl)amino]-2-pyrimidinyl}amino)benzamide] | 0.001 to 0.2 µM
26 | CCS(=O)(=O)c1ccc(Nc2nccc(N(C)c3ccc4c(C)n[nH]c4c3)n2)cc1 [Example 57, N^2-[4-(ethylsulfonyl)phenyl]-N^4-methyl-N^4-(3-methyl-1H-indazol-6-yl)-2,4-pyrimidinediamine] | 0.201 to 0.5 µM
27 | CCS(=O)(=O)NCc1ccc(Nc2nccc(N(C)c3ccc4c(C)n[nH]c4c3)n2)cc1 [Example 58, N-[4-({4-[methyl(3-methyl-1H-indazol-6-yl)amino]-2-pyrimidinyl}amino)benzyl]ethanesulfonamide] | 0.001 to 0.2 µM
